Earlier results in US10835532B2, “Muscarinic agonists as cognitive enhancers” (The University of Toledo, priority 2008, dated 2020).

System: Alzheimer's subjects
Conditions: cited from earlier work

## CCCCCCOc1nsnc1C1=CCCN(C)C1 [xanomeline]
Alzheimer's subjects, limited subject compliance
  Side effects associated with activation of M3 receptors (salivation, diarrhea and profuse sweating): produced unwanted side effects
Phase II clinical trials in Alzheimer's subjects
  Psychiatric symptoms such as hallucinations: significantly improved
